Assay results published in ChEMBL document CHEMBL1201862, “PubChem BioAssay data set” (2004).
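Grown in 96-well plates, cells were treated for 48 hours with each compound at five concentrations. Insufficient inhibition: endpoint recorded as highest concentration tested. GI50 is the concentration that inhibits growth by half.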 Calls of active or inactive are those of the source. Rule as the data show it: active = GI50 up to about 1.1 µM and inactive = higher.

Columns and labels:
Assay in all cases: NCI anticancer screen, dose series, 48 h
ACHN = test system: ACHN
COLO 205 = test system: COLO 205
HL-60 = test system: HL-60
HOP-92 = test system: HOP-92
Hs-578T = test system: Hs-578T
IGROV-1 = test system: IGROV-1
M14 = test system: M14
MCF7 = test system: MCF7
Malme-3M = test system: Malme-3M
NCI-H226 = test system: NCI-H226
OVCAR-5 = test system: OVCAR-5
OVCAR-8 = test system: OVCAR-8
PC-3 = test system: PC-3
SF-295 = test system: SF-295
SK-MEL-28 = test system: SK-MEL-28
SNB-19 = test system: SNB-19
SR = test system: SR
SW-620 = test system: SW-620
T47D = test system: T47D
U-251 = test system: U-251

SMILES: CC1=CCC([C@@](C)(O)CCCC(C)(C)N=C=S)CC1 (stereo not given in full)
- GI50 (ACHN): 16.8 µM (inactive)
- GI50 (COLO 205): 16.1 µM (inactive)
- GI50 (HL-60): 21.8 µM (inactive)
- GI50 (HOP-92): 18.5 µM (inactive)
- GI50 (Hs-578T): 26.5 µM (inactive)
- GI50 (IGROV-1): 20.2 µM (inactive)
- GI50 (M14): 17.1 µM (inactive)
- GI50 (MCF7): 18.7 µM (inactive)
- GI50 (Malme-3M): 14.8 µM (inactive)
- GI50 (NCI-H226): 17.2 µM (inactive)
- GI50 (OVCAR-5): 19.4 µM (inactive)
- GI50 (OVCAR-8): 17.7 µM (inactive)
- GI50 (PC-3): 18.6 µM (inactive)
- GI50 (SF-295): 19.4 µM (inactive)
- GI50 (SK-MEL-28): 16.6 µM (inactive)
- GI50 (SNB-19): 17.3 µM (inactive)
- GI50 (SR): 19.8 µM (inactive)
- GI50 (SW-620): 18.3 µM (inactive)
- GI50 (T47D): 21 µM (inactive)
- GI50 (U-251): 18.8 µM (inactive)

SMILES: Nc1nc(N)c2cc(CNc3ccc(C(=O)NC(CC(=O)O)C(=O)O)c(Cl)c3)ccc2n1 (stereo not given)
- GI50 (ACHN): 0.0253 µM (active)
- GI50 (COLO 205): 0.861 µM (active)
- GI50 (HL-60): 14.3 µM (inactive)
- GI50 (HOP-92): > 87.5 µM (inactive)
- GI50 (Hs-578T): 357 µM (inactive)
- GI50 (IGROV-1): 0.112 µM (active)
- GI50 (M14): 0.0743 µM (active)
- GI50 (MCF7): 0.0507 µM (active)
- GI50 (Malme-3M): 0.383 µM (active)
- GI50 (NCI-H226): > 21.6 µM (inactive)
- GI50 (OVCAR-5): 0.191 µM (active)
- GI50 (OVCAR-8): 0.032 µM (active)
- GI50 (PC-3): 10.1 µM (inactive)
- GI50 (SF-295): 0.0698 µM (active)
- GI50 (SK-MEL-28): 0.288 µM (active)
- GI50 (SNB-19): 0.248 µM (active)
- GI50 (SR): 0.05 µM (active)
- GI50 (SW-620): < 0.0103 µM (active)
- GI50 (T47D): 0.524 µM (active)
- GI50 (U-251): 0.0556 µM (active)

SMILES: NC(=O)SCCC(N)C(=O)O (stereo not given)
- GI50 (ACHN): > 100 µM (inactive)
- GI50 (COLO 205): > 100 µM (inactive)
- GI50 (HL-60): > 81.3 µM (inactive)
- GI50 (HOP-92): > 100 µM (inactive)
- GI50 (Hs-578T): > 100 µM (inactive)
- GI50 (IGROV-1): > 100 µM (inactive)
- GI50 (M14): > 100 µM (inactive)
- GI50 (MCF7): > 100 µM (inactive)
- GI50 (Malme-3M): > 100 µM (inactive)
- GI50 (NCI-H226): > 100 µM (inactive)
- GI50 (OVCAR-5): > 100 µM (inactive)
- GI50 (OVCAR-8): > 100 µM (inactive)
- GI50 (PC-3): > 100 µM (inactive)
- GI50 (SF-295): > 100 µM (inactive)
- GI50 (SK-MEL-28): > 100 µM (inactive)
- GI50 (SNB-19): > 100 µM (inactive)
- GI50 (SR): > 100 µM (inactive)
- GI50 (SW-620): > 100 µM (inactive)
- GI50 (T47D): > 100 µM (inactive)
- GI50 (U-251): > 100 µM (inactive)

SMILES: CN(/N=C/c1ccccn1)C1=NCCCCN1
- GI50 (ACHN): > 100 µM (inactive)
- GI50 (COLO 205): > 100 µM (inactive)
- GI50 (HL-60): > 100 µM (inactive)
- GI50 (HOP-92): > 100 µM (inactive)
- GI50 (Hs-578T): > 100 µM (inactive)
- GI50 (IGROV-1): > 100 µM (inactive)
- GI50 (M14): > 100 µM (inactive)
- GI50 (MCF7): > 100 µM (inactive)
- GI50 (Malme-3M): > 100 µM (inactive)
- GI50 (NCI-H226): > 100 µM (inactive)
- GI50 (OVCAR-5): > 100 µM (inactive)
- GI50 (OVCAR-8): > 100 µM (inactive)
- GI50 (PC-3): > 100 µM (inactive)
- GI50 (SF-295): > 100 µM (inactive)
- GI50 (SK-MEL-28): > 100 µM (inactive)
- GI50 (SNB-19): > 100 µM (inactive)
- GI50 (SR): > 100 µM (inactive)
- GI50 (SW-620): > 100 µM (inactive)
- GI50 (T47D): > 100 µM (inactive)
- GI50 (U-251): > 100 µM (inactive)

SMILES: CC1CCC2(OC1)OC1CC3C4CC=C5CC(OC6OC(CO)C(OC7OC(C)C(OC8OC(C)C(O)C(O)C8O)C(O)C7O)C(O)C6OC6OC(C)C(O)C(O)C6O)CCC5(C)C4CCC3(C)C1C2C (stereo not given)
- GI50 (ACHN): 1.47 µM (inactive)
- GI50 (COLO 205): 1.28 µM (inactive)
- GI50 (HL-60): 0.239 µM (active)
- GI50 (HOP-92): 0.0703 µM (active)
- GI50 (Hs-578T): 0.264 µM (active)
- GI50 (IGROV-1): 1.3 µM (inactive)
- GI50 (M14): 1.05 µM (active)
- GI50 (MCF7): 1.38 µM (inactive)
- GI50 (Malme-3M): 0.363 µM (active)
- GI50 (NCI-H226): 1.36 µM (inactive)
- GI50 (OVCAR-5): 1.12 µM (inactive)
- GI50 (OVCAR-8): 0.326 µM (active)
- GI50 (PC-3): 0.724 µM (active)
- GI50 (SF-295): 0.308 µM (active)
- GI50 (SK-MEL-28): 0.612 µM (active)
- GI50 (SNB-19): 0.262 µM (active)
- GI50 (SR): 0.0196 µM (active)
- GI50 (SW-620): 1.48 µM (inactive)
- GI50 (T47D): 1.24 µM (inactive)
- GI50 (U-251): 0.65 µM (active)

SMILES: CC(C)=CCNc1ncnc2[nH]cnc12
- GI50 (ACHN): > 100 µM (inactive)
- GI50 (COLO 205): > 100 µM (inactive)
- GI50 (HL-60): > 100 µM (inactive)
- GI50 (HOP-92): > 100 µM (inactive)
- GI50 (Hs-578T): > 100 µM (inactive)
- GI50 (IGROV-1): > 100 µM (inactive)
- GI50 (M14): > 100 µM (inactive)
- GI50 (MCF7): > 100 µM (inactive)
- GI50 (Malme-3M): > 100 µM (inactive)
- GI50 (NCI-H226): 90.2 µM (inactive)
- GI50 (OVCAR-5): > 100 µM (inactive)
- GI50 (OVCAR-8): > 100 µM (inactive)
- GI50 (PC-3): > 100 µM (inactive)
- GI50 (SF-295): > 100 µM (inactive)
- GI50 (SK-MEL-28): > 100 µM (inactive)
- GI50 (SNB-19): > 100 µM (inactive)
- GI50 (SR): > 100 µM (inactive)
- GI50 (SW-620): > 100 µM (inactive)
- GI50 (T47D): > 100 µM (inactive)
- GI50 (U-251): > 100 µM (inactive)
